In patent US11440923B2, “Substituted macrocyclic indole derivatives” (Bayer Aktiengesellschaft, priority 2017, dated 2022) one finds IC50 and EC50 data, which are given here for 10 compounds.

Structures can show the parent of a compound that is named as a salt. Where two headings read alike, the source gives them in different places.

Common to all, as to format: cell-based
The subject of series [1] is SUDHL5 cells. As to the kind of experiment: Induction of cytotoxicity in SUDHL5 cells (Assay 6). The settings on record: 5 h, CellTiter-Glo; read-out: Cytotox SUDHL5 IC50 (median). The protocol: (§1) Assay 6 Induction of Cytotoxicity Upon Treatment of Cells with Selected Compounds
(§2) In principle, compounds that induce apoptosis will concomitantly induce cell cytotoxicity. Therefore, cytotoxicity assays were run in parallel in SUDHL5 and SUDHL10 cells.
(§3) As a control, medium without cells was also added to the plate. Cells were incubated in a humidified incubator at 37° C. overnight. […] Rim wells were excluded. The cells were incubated for 5 h hours in a humidified incubator at 37° C. After this incubation, 30 μL of CellTiter-Glo® Luminescent Cell Viability reagent (Promega, G7573) was added to each well using the Multidrop Combi Reagent Dispenser, followed by 15 min incubation on a shaker at room temperature. Finally, luminescence was read at 0.1 ms, with a gain of 3000 using the PHERAstar FS microplate reader (BMG Labtech).
A general note: ATP-based viability assays read luminescence as a measure of living cells.

A further series concerns HMC-1-8 cells. As to the kind of experiment: Antiproliferation assay HMC-1-8 (Assay 7). Here is the method:
(§4) Assessment of the Anti-Proliferative Effect of Compounds in Different Cell Lines
(§5) The impact of compounds on the proliferation of different cell lines was assessed using the CellTiter-Glo® Luminescent Cell Viability reagent from Promega (G7573).
(§6) In parallel, cells were plated in a reference (day 0) plate for time zero determination. Cells were incubated in a humidified incubator at 37° C. overnight.
(§7) Rim wells were excluded. The cells were incubated for 72 h hours in a humidified incubator at 37° C. The day 0 plate was measured by adding 30 μL/well of CTG solution (CellTiter-Glo® Luminescent Cell Viability reagent, Promega G7573) to time zero wells in the reference plate followed by a 10 minutes incubation and luminescence reading at 0.1 ms. using the PHERAstar FS microplate reader (BMG Labtech).
(§8) After 72 h incubation, the treated plates were measured in the same way as the day 0 plate mentioned above. The Bella DRC Master Sheet was used to calculate IC50s, with CI=day 0 values and C0=DMSO control values.

In series [2] the test system is SUDHL5 cells. As to the kind of experiment: Induction of caspase-3/7 activity in SUDHL5 cells (Assay 4). The protocol:
(§9) Induction of Caspase-3/7 Activity Upon Treatment of Cells with Selected Compounds
(§10) The BH3-domain of MCL-1 sequesters pro-apoptotic proteins, thereby inhibiting apoptosis. In contrast, MCL-1 inhibitors are expected to antagonize this effect leading to an increase in apoptosis, which can be determined by measuring the activity of caspase-3/7.
(§11) The activity of caspase-3/7 was determined in DLBCL (Diffuse large B-cell lymphoma) cell lines (SUDHL5 and SUDHL10) upon treatment with different compounds, using the Caspase-Glo® 3/7 reagent from Promega (G8092).
(§12) As a control, medium without cells was also added to the plate. Cells were incubated in a humidified incubator at 37° C. overnight.
(§13) Rim wells were excluded. The cells were incubated for 3 h hours in a humidified incubator at 37° C. After this incubation, 30 μL of Caspase-Glo® 3/7 reagent (Promega G8092) was added to each well using the Multidrop Combi Reagent Dispenser, followed by 1 h incubation at 37° C. Finally, luminescence was read at 0.1 ms, with a gain of 3000 using the PHERAstar FS microplate reader (BMG Labtech).
(§14) For the evaluation of the results, the background measured with “medium-only” was subtracted from all other values. Then, the values were normalized to DMSO-only treated cells (every value was divided by the mean of the DMSO control).

For series [3], the system named is SUDHL5 cells. The experiment in a line: Antiproliferation assay SUDHL5 (Assay 7). Particulars: 72 h, CellTiter-Glo; read-out: Antiproli SUDHL5 IC50 (median). Here is the method: as §4, §5, §6, §7, §8
A further series relates to AMO-1 cells. As to the kind of experiment: Antiproliferation assay AMO-1 (Assay 7). Here is the method: as §4, §5, §6, §7, §8
The test system of series [4] is SUDHL10 cells. The experiment in a line: Induction of caspase-3/7 activity in SUDHL10 cells (Assay 4). Here is the method: as §9, §10, §11, §12, §13, §14
In series [5] the test system is SUDHL10 cells. As to the kind of experiment: Induction of cytotoxicity in SUDHL10 cells (Assay 6). Particulars: 5 h, CellTiter-Glo; read-out: Cytotox SUDHL10 IC50 (median). The protocol: as §1, §2, §3
The mark [6] stands for this setting: 72 h, CellTiter-Glo; read-out: Antiproli HMC-1-8 IC50 median.
The mark [7] stands for this setting: caspase-3/7 induction, 3 h; read-out: Caspase SUDHL5 EC50 (median).
The mark [8] stands for this setting: 72 h, CellTiter-Glo; read-out: Antiproli AMO-1 IC50 median.
The mark [9] stands for this setting: caspase-3/7 induction, 3 h; read-out: Caspase SUDHL10 EC50 (median).

The IC50 is the concentration that inhibits the measured activity by half. Usually EC50 stands for the concentration giving half of the maximal effect.

With `CCc1c2c(nn1C)C(CCN1CCOCC1)N(C)CCCCn1c(C(=O)O)c(CCCOc3cccc4cc(F)ccc34)c3ccc(Cl)c-2c31` (racemic) [Example 93, (rac)-4-chloro-3-ethyl-7-{3-[(6-fluoro-1-naphthyl)oxy]propyl}-2,14-dimethyl-(15-rac)-[2-(morpholin-4-yl)ethyl]-10,11,12,13,14,15-hexahydro-2H-pyrazolo[3′,4′:8,9][1,6]diazacycloundecino[10,11,1-hi]indole-8-carboxylic Acid], the IC50 in the series on SUDHL5 cells [1] amounted to 27 nM; in the series on HMC-1-8 cells (setting [6]), 558 nM; with SUDHL5 cells [3] it was 20 nM; in the series on AMO-1 cells (setting [8]) it was 58.9 nM. In addition, the concentration for a half-maximal effect (EC50) in the series on SUDHL5 cells [2] (setting [7]) stood at 20 nM; with SUDHL10 cells [4] (setting [9]), 23 nM.

As for `CCc1c2c(nn1C)C(CCN1CCOCC1)N(C)CCCCn1c(C(=O)O)c(CCCOc3cccc4cc(F)ccc34)c3ccc(Cl)c-2c31` (racemic) [Example 96, (rac)-4-chloro-3-ethyl-7-{3-[(6-fluoro-1-naphthyl)oxy]propyl}-2,14-dimethyl-15-(rac)-[2-(morpholin-4-yl)ethyl]-10,11,12,13,14,15-hexahydro-2H-pyrazolo[3′,4′:8,9][1,6]diazacycloundecino[10,11,1-hi]indole-8-carboxylic Acid], the IC50 amounted to 25 nM in the series with SUDHL5 cells [1], 726 nM in the series on HMC-1-8 cells (setting [6]) and 30 nM in the series on SUDHL5 cells [3]. In addition, the EC50 in the series on SUDHL5 cells [2] (setting [7]) was found to be 19 nM; in the series with SUDHL10 cells [4] (setting [9]) it was 28 nM.

On to `CCc1c2c(nn1C)C(CCN1CCOCC1)N(C)CCCCn1c(C(=O)O)c(CCCOc3cccc4ccccc34)c3ccc(Cl)c-2c31` (racemic) [Example 99, (rac)-4-chloro-3-ethyl-2,14-dimethyl-(15-rac)-[2-(morpholin-4-yl)ethyl]-7-{3-[(naphthalen-1-yl)oxy]propyl}-10,11,12,13,14,15-hexahydro-2H-pyrazolo[3′,4′:8,9][1,6]diazacycloundecino[10,11,1-hi]indole-8-carboxylic], for which the IC50 with SUDHL5 cells [1] stood at 100 nM; in the series with HMC-1-8 cells (72 h, CellTiter-Glo, read-out: Antiproli HMC-1-8 IC50 median) it was 1860 nM; with SUDHL5 cells [3] it was 71 nM; in the series on AMO-1 cells (setting [8]) it was 86.3 nM. In addition, the EC50 with SUDHL5 cells [2] (setting [7]) is 76 nM; in the series with SUDHL10 cells [4] (setting [9]) it was 59 nM.

Regarding `CCc1c2c(nn1C)C(CCN1CCOCC1)N(C)CCCCn1c(C(=O)O)c(CCCOc3cccc4cc(F)ccc34)c3ccc(Cl)c-2c31` (single isomer, unassigned) [Example 95, 4-chloro-3-ethyl-7-{3-[(6-fluoronaphthalen-1-yl)oxy]propyl}-2,14-dimethyl-15-[2-(morpholin-4-yl)ethyl]-10,11,12,13,14,15-hexahydro-2H-pyrazolo[3′,4′:8,9][1,6]diazacycloundecino[10,11,1-hi]indole-8-carboxylic Acid], the IC50 in the series on SUDHL5 cells [1] came out at 2200 nM; in the series on HMC-1-8 cells (setting [6]), 8220 nM; in the series on SUDHL5 cells [3], 2300 nM; with AMO-1 cells (setting [8]), 4300 nM. In addition, the values for the EC50 with SUDHL5 cells [2] (setting [7]) and with SUDHL10 cells [4] (setting [9]) were 1500 nM and 3500 nM, respectively.

For the compound `CCc1c2c(nn1C)C(CCN1CCOCC1)OCCCCn1c(C(=O)O)c(CCCOc3cccc4cc(F)ccc34)c3ccc(Cl)c-2c31` (single isomer, unassigned; enantiomer 1) [Example 23, (+)-4-chloro-3-ethyl-7-{3-[(6-fluoronaphthalen-1-yl)oxy]propyl}-2-methyl-15-[2-(morpholin-4-yl)ethyl]-2,10,11,12,13,15-hexahydropyrazolo[4′,3′:9,10][1,6]oxazacycloundecino[8,7,6-hi]indole-8-carboxylic Acid—N-ethylethanamine (Enantiomer 1)], the IC50 stood at 7.8 nM with SUDHL5 cells [1] and 9.7 nM with SUDHL10 cells [5].

As to `CCc1c2c(nn1C)C(CCN1CCOCC1)OCCCCn1c(C(=O)O)c(CCCOc3cccc4cc(F)ccc34)c3ccc(Cl)c-2c31` (single isomer, unassigned; enantiomer 2) [Example 24, (−)-4-chloro-3-ethyl-7-{3-[(6-fluoronaphthalen-1-yl)oxy]propyl}-2-methyl-15-[2-(morpholin-4-yl)ethyl]-2,10,11,12,13,15-hexahydropyrazolo[4′,3′:9,10][1,6]oxazacycloundecino[8,7,6-hi]indole-8-carboxylic acid—N-ethylethanamine (Enantiomer 2)], the results for the IC50 in the series with SUDHL5 cells [1] and in the series with SUDHL10 cells [5] were 1700 nM and 6600 nM, respectively.

`CCc1c2c(nn1C)C(CCN1CCN(C)CC1)OCCCCn1c(C(=O)O)c(CCCOc3cccc4cc(F)ccc34)c3ccc(Cl)c-2c31` (single isomer, unassigned; stereoisomer 3) [Example 72, (−)-4-chloro-3-ethyl-7-{3-[(6-fluoronaphthalen-1-yl)oxy]propyl}-2-methyl-15-[2-(4-methylpiperazin-1-yl)ethyl]-2,10,11,12,13,15-hexahydropyrazolo[4′,3′:9,10][1,6]oxazacycloundecino[8,7,6-hi]indole-8-carboxylic Acid—N-ethylethanamine Salt (Stereoisomer 3)]: the IC50 in the series on SUDHL5 cells [1] amounted to 96 nM; in the series on HMC-1-8 cells (read-out: Antiproli HMC-1-8 IC50 median; 72 h, CellTiter-Glo) it was 2290 nM; with AMO-1 cells (read-out: Antiproli AMO-1 IC50 median; 72 h, CellTiter-Glo), 107 nM. In addition, the concentration for a half-maximal effect (EC50) in the series on SUDHL5 cells [2] (read-out: Caspase SUDHL5 EC50 (median); caspase-3/7 induction, 3 h) amounted to 74 nM; with SUDHL10 cells [4] (read-out: Caspase SUDHL10 EC50 (median); caspase-3/7 induction, 3 h), 54 nM.

As for `CCc1c2c(nn1C)[C@@H](CCN1CCOCC1)OCCCCn1c(C(=O)O)c(CCCOc3cccc4cc(F)ccc34)c3ccc(Cl)c-2c31` [Example 48, (15R)-4-chloro-3-ethyl-7-{3-[(6-fluoronaphthalen-1-yl)oxy]propyl}-2-methyl-15-[2-(morpholin-4-yl)ethyl]-2,10,11,12,13,15-hexahydropyrazolo[4′,3′:9,10][1,6]oxazacycloundecino[8,7,6-hi]indole-8-carboxylic Acid—N-ethylethanamine Salt], the values for the IC50 in the series with SUDHL5 cells [1] and with SUDHL10 cells [5] were 210 nM and 200 nM, respectively.

On to `CCc1c2c(nn1C)C(CCN1CCOCC1)OCC(F)(F)CCn1c(C(=O)O)c(CCCOc3cccc4cc(F)ccc34)c3ccc(Cl)c-2c31` (centres unmarked) [Example 89, 4-chloro-3-ethyl-12,12-difluoro-7-{3-[(6-fluoronaphthalen-1-yl)oxy]propyl}-2-methyl-15-[2-(morpholin-4-yl)ethyl]-2,10,11,12,13,15-hexahydropyrazolo[4′,3′:9,10][1,6]oxazacycloundecino[8,7,6-hi]indole-8-carboxylic Acid], for which the IC50 was 765 nM with HMC-1-8 cells (setting [6]), 36 nM in the series with SUDHL5 cells [3] and 29.5 nM in the series on AMO-1 cells (setting [8]). Further, the EC50 with SUDHL5 cells [2] (setting [7]) and with SUDHL10 cells [4] (setting [9]) was 30 nM in each case.

For `CCc1c2c(nn1C)C(CCN1CCOCC1)N(C)CCCCn1c(C(=O)O)c(CCCOc3cccc4cc(F)ccc34)c3ccc(Cl)c-2c31` (centres unmarked) [Example 97, 4-chloro-3-ethyl-7-{3-[(6-fluoronaphthalen-1-yl)oxy]propyl}-2,14-dimethyl-15-[2-(morpholin-4-yl)ethyl]-10,11,12,13,14,15-hexahydro-2H-pyrazolo[3′,4′:8,9][1,6]diazacycloundecino[10,11,1-hi]indole-8-carboxylic Acid—N-ethylethanamine Salt], the IC50 came to 405 nM in the series with HMC-1-8 cells (setting [6]), 12 nM in the series on SUDHL5 cells [3] and 16.3 nM in the series with AMO-1 cells (setting [8]). Also, the concentration for a half-maximal effect (EC50) with SUDHL5 cells [2] (setting [7]) and with SUDHL10 cells [4] (setting [9]) was 11 nM in each case.
